Measured values: PubChem BioAssay AID1845216 (Molecular Pharmacology Branch, DTP, NCI, 2023)

System: SW 982 tumor spheroid viability
Experiment: Anticancer human tumor SW 982 cell line growth inhibition;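 further: spheroids exposed to compound for 7 days before readout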
Settings: spheroids with HUVEC and MSC; for IC50: curve of first compound; for viability, T/C: stronger effect = lower value
Method in brief: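 Single agents and combinations were tested on spheroids built from tumor cells plus HUVEC and hMSC, at half-log dilutions starting at or near clinical Cmax, else 10 microM; final DMSO 0.25% (v/v).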

[1] = second compound 1 µM, first compound 0.00949 µM
[2] = second compound 1 µM, first compound 0.03 µM
[3] = second compound 1 µM, first compound 0.0949 µM
[4] = second compound 1 µM, first compound 0.3 µM
[5] = second compound 1 µM, first compound 0.949 µM
[6] = second compound 1 µM, first compound 3 µM
[7] = second compound 3.16 µM, first compound 0.00949 µM
[8] = second compound 3.16 µM, first compound 0.03 µM
[9] = second compound 3.16 µM, first compound 0.0949 µM
[10] = second compound 3.16 µM, first compound 0.3 µM
[11] = second compound 3.16 µM, first compound 0.949 µM
[12] = second compound 3.16 µM, first compound 3 µM
[13] = second compound 10 µM, first compound 0.00949 µM
[14] = second compound 10 µM, first compound 0.03 µM
[15] = second compound 10 µM, first compound 0.0949 µM
[16] = second compound 10 µM, first compound 0.3 µM
[17] = second compound 10 µM, first compound 0.949 µM
[18] = second compound 10 µM, first compound 3 µM
[19] = second compound 31.6 µM, first compound 0.00949 µM
[20] = second compound 31.6 µM, first compound 0.03 µM
[21] = second compound 31.6 µM, first compound 0.0949 µM
[22] = second compound 31.6 µM, first compound 0.3 µM
[23] = second compound 31.6 µM, first compound 0.949 µM
[24] = second compound 31.6 µM, first compound 3 µM
[25] = second compound 100 µM, first compound 0.00949 µM
[26] = second compound 100 µM, first compound 0.03 µM
[27] = second compound 100 µM, first compound 0.0949 µM
[28] = second compound 100 µM, first compound 0.3 µM
[29] = second compound 100 µM, first compound 0.949 µM
[30] = second compound 100 µM, first compound 3 µM

SMILES	IC50 (second compound 1 µM) [µM]	IC50 (second compound 3.16 µM) [µM]	IC50 (second compound 10 µM) [µM]	IC50 (second compound 31.6 µM) [µM]	IC50 (second compound 100 µM) [µM]	viability, T/C [3] [%]	viability, T/C [4] [%]	viability, T/C [5] [%]	viability, T/C [6] [%]	viability, T/C [9] [%]	viability, T/C [10] [%]	viability, T/C [11] [%]	viability, T/C [12] [%]	viability, T/C [15] [%]	viability, T/C [16] [%]	viability, T/C [17] [%]	viability, T/C [18] [%]	viability, T/C [21] [%]	viability, T/C [22] [%]	viability, T/C [23] [%]	further results
CNCc1ccc(-c2cc(-c3nc(-c4ccc(S(=O)(=O)C(C)C)cc4)cnc3N)on2)cc1 + Cn1nnc2c(C(N)=O)ncn2c1=O	0.219	0.228	0.16	0.109	0.0534	75.1	38	28.6	14.7	68.8	39.5	29.8	9.23	60	35.3	26.7	8.84	51.6	31.7	23.1	viability, T/C [1]: 95.6%; viability, T/C [2]: 89.3%; viability, T/C [7]: 92.9%; viability, T/C [8]: 87.2%; viability, T/C [13]: 72.7%; viability, T/C [14]: 71.9%; viability, T/C [19]: 69%; viability, T/C [20]: 67.7%; viability, T/C [24]: 8.96%; viability, T/C [25]: 63.5%; viability, T/C [26]: 58.8%; viability, T/C [27]: 43.5%; viability, T/C [28]: 28.1%; viability, T/C [29]: 22.7%; viability, T/C [30]: 5.36%
Cc1sc2c(c1C)C(c1ccc(Cl)cc1)=NC(CC(=O)Nc1ccc(O)cc1)c1nnc(C)n1-2 (stereo not given) + Cn1nnc2c(C(N)=O)ncn2c1=O	0.294	0.24	0.158	0.106	0.0922	78.2	47.6	35	25	76.6	43.8	27.7	21.4	60.8	36.4	21.6	17.8	53.9	27.8	19.7	viability, T/C [1]: 113%; viability, T/C [2]: 101%; viability, T/C [7]: 103%; viability, T/C [8]: 104%; viability, T/C [13]: 87.8%; viability, T/C [14]: 81%; viability, T/C [19]: 76.2%; viability, T/C [20]: 67.6%; viability, T/C [24]: 14.7%; viability, T/C [25]: 67.7%; viability, T/C [26]: 66.4%; viability, T/C [27]: 49.6%; viability, T/C [28]: 21.2%; viability, T/C [29]: 16.1%; viability, T/C [30]: 20.6%
Cn1ncnc1[C@H]1c2n[nH]c(=O)c3cc(F)cc(c23)N[C@@H]1c1ccc(F)cc1 + Cn1nnc2c(C(N)=O)ncn2c1=O	> 3	> 3	> 3	1.08	< 0.00949	86.6	89.2	79	69.9	79.3	73	77.3	59.9	60	64.3	60	50.3	53	55.5	50.1	viability, T/C [1]: 90.9%; viability, T/C [2]: 88.5%; viability, T/C [7]: 89.8%; viability, T/C [8]: 62.1%; viability, T/C [13]: 70.4%; viability, T/C [14]: 69.5%; viability, T/C [19]: 56%; viability, T/C [20]: 55.7%; viability, T/C [24]: 43.9%; viability, T/C [25]: 44.5%; viability, T/C [26]: 44.9%; viability, T/C [27]: 48.1%; viability, T/C [28]: 44%; viability, T/C [29]: 39.8%; viability, T/C [30]: 39.7%
O=C(c1cc(Cc2n[nH]c(=O)c3ccccc23)ccc1F)N1CCN(C(=O)C2CC2)CC1 + Cn1nnc2c(C(N)=O)ncn2c1=O	21.4	21.8	16.3	4.55	0.863	93.2	95	96.9	78.3	93.7	93.8	81.3	73.6	75.7	70.7	68	67.6	66.6	64.5	54.3	viability, T/C (second compound 1 µM, first compound 9.49 µM): 66.5%; viability, T/C (second compound 1 µM, first compound 30 µM): 43.5%; viability, T/C (second compound 3.16 µM, first compound 9.49 µM): 59.7%; viability, T/C (second compound 3.16 µM, first compound 30 µM): 46.4%; viability, T/C (second compound 10 µM, first compound 9.49 µM): 57.3%; viability, T/C (second compound 10 µM, first compound 30 µM): 41.7%; viability, T/C [24]: 55.7%; viability, T/C (second compound 31.6 µM, first compound 9.49 µM): 45.2%; viability, T/C (second compound 31.6 µM, first compound 30 µM): 36%; viability, T/C [27]: 49.6%; viability, T/C [28]: 54%; viability, T/C [29]: 50.7%; viability, T/C [30]: 41.6%; viability, T/C (second compound 100 µM, first compound 9.49 µM): 38.3%; viability, T/C (second compound 100 µM, first compound 30 µM): 33.2%
